# Assay results from patent publication EP0329053A1, “Choline esters of glycerophosphoric acids” (MAGIS FARMACEUTICI S.p.A., priority 1988, dated 1989).
# Assay: Acute toxicity by the Weill method
# Conditions: in vivo, mouse, read-out: LD₅₀
# Method: The acute toxicity of the compounds according to the invention was studied on the mouse by the Weill method (Weill C.S. Biomed. J. 8 249 (1952)). […] For the compound of formula (I) wherein n=1 and R, R¹ equal to H, the LD₅₀ is higher than 2000 mg/kg.
compound,measurement,value
C[N+](C)(C)CCOP(=O)([O-])OP(=O)(O)OCC(O)CO (stereo not drawn) [choline α-glyceryl disphosphate],LD50,> 2000 mg/kg
